Data reported in paper PMC12504763, “Antiproliferation, 3D-multicellular spheroid and VEGFR-2 inhibitory properties of spiroindolin-2-ones with phosphonate function” (Scientific Reports, 2025).
Where two headings read alike, the source gives them in different places.

Columns and labels:
[1] = test system: HCT116 (colon) cancer cell line; experiment: 2D-monolayer antiproliferation (MTT) against HCT116; format: cell-based, human; details: for IC50: Homo sapiens, HCT-116; for SI (selectivity index) HCT116: IC50 of RPE1 normal cell/IC50 of HCT116
[2] = test system: PaCa2 (pancreatic) cancer cell line; experiment: 2D-monolayer antiproliferation (MTT) against PaCa2; format: cell-based, human; details: for 1/(observed property): 1/observed IC50 (μM), PaCa2; for IC50: Homo sapiens, PaCa-2, MTT, 72 h incubation, PaCa2 pancreatic, read-out: IC50, μM ± SEM PaCa2; for SI (selectivity index) PaCa2: IC50 of RPE1 normal cell/IC50 of PaCa2
[3] = test system: MCF7 (breast) cancer cell line; experiment: 2D-monolayer antiproliferation (MTT) against MCF7; format: cell-based, human; details: for IC50: Homo sapiens, MTT, 72 h incubation, MCF7 breast, read-out: IC50, μM ± SEM MCF7; for SI (selectivity index) MCF7: IC50 of RPE1 normal cell/IC50 of MCF7
[4] = test system: A549 (lung) cancer cell line; experiment: 2D-monolayer antiproliferation (MTT) against A549; format: cell-based, human; details: for IC50: Homo sapiens, MTT, 72 h incubation, A549 lung, read-out: IC50, μM ± SEM A549; for SI (selectivity index) A549: IC50 of RPE1 normal cell/IC50 of A549
[5] = test system: RPE1 (normal human immortalized retinal pigment epithelial cell line); experiment: cells; format: cell-based; details: for IC50: Homo sapiens, RPE-1, MTT, normal RPE1 cell, read-out: IC50, μM ± SEM RPE1
VEGFR-2 [6] = target: T1, VEGFR-2 (Homo sapiens, UniProt P35968); experiment: cell-based; format: cell-based; details: for inhibition at 10 µM: HCT-116, HCT116; for VEGFR-2 pg/mL ± SEM HCT116: at 10 μM, control 317.80 ± 3.5
T1 construct: endogenous in cells; host or cells: HCT116, PaCa2, MCF7 (human cancer cell lines, ATCC origin)
T1 sequence (P35968 20-1356): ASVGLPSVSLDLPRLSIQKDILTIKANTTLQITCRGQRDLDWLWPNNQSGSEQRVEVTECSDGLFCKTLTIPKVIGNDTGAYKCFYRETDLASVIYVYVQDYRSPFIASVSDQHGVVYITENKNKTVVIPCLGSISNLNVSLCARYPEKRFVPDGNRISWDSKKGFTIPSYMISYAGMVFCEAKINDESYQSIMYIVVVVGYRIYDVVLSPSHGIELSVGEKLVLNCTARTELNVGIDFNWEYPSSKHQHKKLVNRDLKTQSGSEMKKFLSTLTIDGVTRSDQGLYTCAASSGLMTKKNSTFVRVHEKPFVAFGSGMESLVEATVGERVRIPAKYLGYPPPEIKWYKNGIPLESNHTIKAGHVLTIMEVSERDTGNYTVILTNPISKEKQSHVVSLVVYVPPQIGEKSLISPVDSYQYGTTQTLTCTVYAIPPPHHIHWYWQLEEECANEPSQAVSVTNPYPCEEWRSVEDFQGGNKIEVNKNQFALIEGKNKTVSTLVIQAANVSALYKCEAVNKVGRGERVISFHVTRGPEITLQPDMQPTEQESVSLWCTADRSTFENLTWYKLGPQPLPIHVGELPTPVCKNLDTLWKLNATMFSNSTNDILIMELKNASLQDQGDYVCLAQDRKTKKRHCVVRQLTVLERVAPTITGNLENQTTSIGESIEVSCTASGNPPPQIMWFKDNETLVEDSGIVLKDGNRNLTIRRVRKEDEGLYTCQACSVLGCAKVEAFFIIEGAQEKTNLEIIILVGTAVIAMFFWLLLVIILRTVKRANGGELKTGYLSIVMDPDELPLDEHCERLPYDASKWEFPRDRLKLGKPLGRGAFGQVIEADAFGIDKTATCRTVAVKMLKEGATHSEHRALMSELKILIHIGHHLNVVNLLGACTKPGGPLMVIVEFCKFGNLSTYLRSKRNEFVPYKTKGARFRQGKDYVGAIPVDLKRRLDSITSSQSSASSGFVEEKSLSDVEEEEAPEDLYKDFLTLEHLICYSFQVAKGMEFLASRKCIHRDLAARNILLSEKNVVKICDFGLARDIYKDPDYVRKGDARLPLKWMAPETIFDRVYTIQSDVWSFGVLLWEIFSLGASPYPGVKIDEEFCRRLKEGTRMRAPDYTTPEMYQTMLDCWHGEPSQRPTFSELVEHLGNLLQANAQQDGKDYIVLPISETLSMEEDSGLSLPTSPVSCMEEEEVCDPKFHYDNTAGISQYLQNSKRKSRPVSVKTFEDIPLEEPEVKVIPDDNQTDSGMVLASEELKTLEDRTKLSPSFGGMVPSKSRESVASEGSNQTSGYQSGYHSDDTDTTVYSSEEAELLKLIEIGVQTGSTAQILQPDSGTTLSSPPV

VEGFR-2 [7] = target: T1, VEGFR-2; experiment: cell-based; format: cell-based; details: for inhibition at 10 µM: PaCa-2, PaCa2; for VEGFR-2 pg/mL ± SEM PaCa2: at 10 μM, control 326.80 ± 1.9
VEGFR-2 [8] = target: T1, VEGFR-2; experiment: cell-based; format: cell-based; details: for inhibition at 10 µM: MCF7; for VEGFR-2 pg/mL ± SEM MCF7: at 10 μM, control 258.70 ± 2.3
COX-1 = target: T2, COX-1 (Ovis aries, UniProt P05979); experiment: biochemical; details: 3 replicates, read-out: % Inhibition of COX-1 ± SEM
T2 construct: purchased BioVision incorporated USA K548–100
T2 sequence (P05979 25-600): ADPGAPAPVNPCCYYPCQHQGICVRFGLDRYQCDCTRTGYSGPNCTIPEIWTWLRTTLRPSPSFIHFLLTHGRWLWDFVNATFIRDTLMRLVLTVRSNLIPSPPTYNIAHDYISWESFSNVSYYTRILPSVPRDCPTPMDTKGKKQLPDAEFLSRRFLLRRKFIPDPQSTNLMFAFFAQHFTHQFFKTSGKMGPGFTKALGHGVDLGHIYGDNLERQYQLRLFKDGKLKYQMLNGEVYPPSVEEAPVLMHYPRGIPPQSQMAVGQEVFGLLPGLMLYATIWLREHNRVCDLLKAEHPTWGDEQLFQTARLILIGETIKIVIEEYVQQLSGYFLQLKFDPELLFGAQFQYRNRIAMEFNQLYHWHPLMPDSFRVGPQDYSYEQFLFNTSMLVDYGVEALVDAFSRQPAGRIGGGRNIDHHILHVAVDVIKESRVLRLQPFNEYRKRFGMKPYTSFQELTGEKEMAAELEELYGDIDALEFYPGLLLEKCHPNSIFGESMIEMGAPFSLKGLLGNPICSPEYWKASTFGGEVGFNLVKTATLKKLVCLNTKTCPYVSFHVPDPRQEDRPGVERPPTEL

COX-2 = target: T3, COX-2 (Homo sapiens, UniProt P35354); experiment: biochemical; details: for inhibition at 10 µM: 3 replicates, read-out: % Inhibition of COX-2 ± SEM; for SI (selectivity index, COX-2/COX-1): at 10 μM
T3 construct: purchased BioVision incorporated USA K548–100
T3 sequence (P35354 18-604): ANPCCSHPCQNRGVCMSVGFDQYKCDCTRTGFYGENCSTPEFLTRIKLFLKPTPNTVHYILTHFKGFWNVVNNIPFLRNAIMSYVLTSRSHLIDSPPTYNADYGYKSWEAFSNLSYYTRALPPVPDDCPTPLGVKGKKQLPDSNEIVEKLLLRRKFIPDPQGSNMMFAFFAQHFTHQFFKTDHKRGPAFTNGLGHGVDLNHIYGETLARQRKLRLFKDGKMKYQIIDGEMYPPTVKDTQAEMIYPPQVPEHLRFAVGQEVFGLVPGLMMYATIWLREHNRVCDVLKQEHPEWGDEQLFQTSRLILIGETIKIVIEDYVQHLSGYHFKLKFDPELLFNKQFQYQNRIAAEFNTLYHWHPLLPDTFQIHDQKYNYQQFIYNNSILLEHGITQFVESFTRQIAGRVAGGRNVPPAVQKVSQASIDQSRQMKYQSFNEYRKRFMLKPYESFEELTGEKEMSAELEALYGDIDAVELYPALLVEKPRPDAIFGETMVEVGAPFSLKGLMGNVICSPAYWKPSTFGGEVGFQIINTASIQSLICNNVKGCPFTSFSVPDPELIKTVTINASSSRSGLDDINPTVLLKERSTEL

TNF-α [9] = experiment: TNF-α inhibitory properties (ELISA), HCT116 cell lysate; format: cell-based, human; details: for TNF-α % inhibition HCT116 / TNF-α pg/mL (± SEM) HCT116: at 10 μM; for TNF-α pg/mL (± SEM) HCT116: control 95.74 ± 0.5
TNF-α [10] = experiment: TNF-α inhibitory properties (ELISA), PaCa2 cell lysate; format: cell-based, human; details: at 10 μM; for TNF-α pg/mL (± SEM) PaCa2: control 111.8 ± 2.0
TNF-α [11] = experiment: TNF-α inhibitory properties (ELISA), MCF7 cell lysate; format: cell-based, human; details: at 10 μM; for TNF-α pg/mL (± SEM) MCF7: control 83.26 ± 1.1
[12] = MTT, 72 h incubation, HCT116 colon, read-out: IC50, μM ± SEM HCT116
[13] = log of observed IC50 (μM), HCT116, read-out: Log(observed property) (converted)

| Compound | IC50 [1, 12] | SI (selectivity index) HCT116 [1] | IC50 [2] | SI (selectivity index) PaCa2 [2] | IC50 [3] | SI (selectivity index) MCF7 [3] | IC50 [4] | SI (selectivity index) A549 [4] | IC50 [5] | inhibition at 10 µM (VEGFR-2 [6]) | VEGFR-2 pg/mL ± SEM HCT116 (VEGFR-2 [6]) | inhibition at 10 µM (VEGFR-2 [7]) | VEGFR-2 pg/mL ± SEM PaCa2 (VEGFR-2 [7]) | inhibition at 10 µM (VEGFR-2 [8]) | VEGFR-2 pg/mL ± SEM MCF7 (VEGFR-2 [8]) | inhibition at 10 µM (COX-1) | inhibition at 10 µM (COX-2) | TNF-α % inhibition HCT116 (TNF-α [9]) | TNF-α pg/mL (± SEM) HCT116 (TNF-α [9]) | TNF-α pg/mL (± SEM) PaCa2 (TNF-α [10]) | also measured |
| --- | --- | --- | --- | --- | --- | --- | --- | --- | --- | --- | --- | --- | --- | --- | --- | --- | --- | --- | --- | --- | --- |
| CCOP(=O)(OCC)N1C/C(=C\c2ccc(F)cc2)C(=O)C2(C1)C(c1ccc(F)cc1)CN(C)C21C(=O)Nc2ccc(Cl)cc21 (centres unmarked) [Compound 17f, Diethyl (E)-[5-chloro-5′′-(4-fluorobenzylidene)-4′-(4-fluorophenyl)-1′-methyl-2,4′′-dioxodispiro[indoline-3,2′-pyrrolidine-3′,3′′-piperidin]-1′′-yl]phosphonate] | 3.72 ± 0.099 µM | 10.7 | 5.25 ± 0.224 µM | 7.6 | 5.29 ± 0.175 µM | 7.5 | > 50 µM | < 0.8 | 39.9 ± 1.16 µM | 86.2% | 43.70 ± 0.9 pg/mL | 91.6% | 27.53 ± 1.1 pg/mL | 75.6% | 63.20 ± 0.9 pg/mL | 57.6 ± 1.1% | 60.8 ± 2.7% | 10.7% | 85.46 ± 1.3 pg/mL | 109.8 ± 4.7 pg/mL | activity fold of sunitinib [2]: 3.2 fold; 1/(observed property) [2]: 0.1904; selectivity index (SI) ([5]; IC50 against RPE1 compared to the tested cancer cell line(s), in words): high selectivity index; SI (selectivity index, COX-2/COX-1) (COX-2): 1.01; TNF-α % inhibition MCF7 (TNF-α [11]): 1.0%; TNF-α pg/mL (± SEM) MCF7 (TNF-α [11]): 82.45 ± 4.0 pg/mL |
| CCOP(=O)(OCC)N1C/C(=C\c2ccc(F)cc2)C(=O)C2(C1)C(c1ccc(F)cc1)CN(C)C21C(=O)Nc2ccc(C)cc21 (centres unmarked) [Compound 17g, Diethyl (E)-(5′′-(4-fluorobenzylidene)-4′-(4-fluorophenyl)-1′,5-dimethyl-2,4′′-dioxodispiro[indoline-3,2′-pyrrolidine-3′,3′′-piperidin]-1′′-yl)phosphonate] | 5.01 ± 0.364 µM | 3.8 | 6.09 ± 0.132 µM | 3.1 | 5.43 ± 0.152 µM | 3.5 | 8.15 ± 0.277 µM | 2.3 | 19 ± 0.647 µM | 69% | 98.40 ± 1.2 pg/mL | 77.7% | 72.80 ± 0.9 pg/mL | 75% | 64.80 ± 0.5 pg/mL | 62.1 ± 3.1% | 51.8 ± 2.8% | 14.6% | 81.75 ± 2.1 pg/mL | 97.4 ± 3.6 pg/mL | IC50 [1, 13]: 5.01 µM; 1/(observed property) [2]: 0.1641; TNF-α % inhibition PaCa2 (TNF-α [10]): 12.9%; TNF-α % inhibition MCF7 (TNF-α [11]): 0.3%; TNF-α pg/mL (± SEM) MCF7 (TNF-α [11]): 83.0 ± 3.2 pg/mL |
| CCOP(=O)(OCC)N1C/C(=C\c2ccc(Cl)cc2)C(=O)C2(C1)C(c1ccc(Cl)cc1)CN(C)C21C(=O)Nc2ccccc21 (centres unmarked) [Compound 17h, Diethyl (E)-[5′′-(4-chlorobenzylidene)-4′-(4-chlorophenyl)-1′-methyl-2,4′′-dioxodispiro[indoline-3,2′-pyrrolidine-3′,3′′-piperidin]-1′′-yl]phosphonate] | 3.08 ± 0.165 µM | 2.6 | 6.35 ± 0.17 µM | 1.3 | 4.07 ± 0.054 µM | 2.0 | 4.15 ± 0.288 µM | 2.0 | 8.15 ± 0.675 µM | 83.7% | 51.74 ± 1.5 pg/mL | 94.4% | 18.25 ± 0.6 pg/mL | 79.6% | 52.70 ± 0.7 pg/mL | 53.5 ± 2.8% | 51.5 ± 3.1% | 80.7% | 18.45 ± 1.1 pg/mL | 26.5 ± 0.7 pg/mL | potency fold of the standard drug 5-fluorouracil ([1]; HCT116, ratio of IC50): 6.6 fold; potency fold of the standard drug sunitinib ([1]; HCT116, ratio of IC50): 3.1 fold; IC50 [1, 13]: 3.08 µM; SI (selectivity index, COX-2/COX-1) (COX-2): 1.06; TNF-α inhibition fold of the standard ibuprofen (TNF-α [9]; 10 μM): 3.6 fold; TNF-α inhibition fold of the standard indomethacin (TNF-α [9]; 10 μM): 1.9 fold; TNF-α % inhibition PaCa2 (TNF-α [10]): 76.3%; TNF-α % inhibition MCF7 (TNF-α [11]): 74.0%; TNF-α pg/mL (± SEM) MCF7 (TNF-α [11]): 21.65 ± 3.1 pg/mL |
